# Assay results taken from patent publication US20150283239A1, “GRAPHENE DERIVATIVE-BASED COMPOSITION FOR DRUG DELIVERY AND PREPARATION METHOD THEREOF” (Research & Business Foundation SUNGKYUNKWAN UNIVERSITY, priority 2014, published 2015).
# Experiments:
# HCT116 tumors = experiment: In vivo drug delivery, tumor volume in HCT116 xenograft mice; parameters: species or system Balb/c female nude mice; settings: 14 days, intratumoral single dose 10 mg/kg
# Protocol: Six (6) to seven (7)-week-old Balb/c female nude mice (weight of 21 g to 25 g) were purchased from Orient Bio Inc., (Seoul, Korea), and were maintained in a 12-hour light/12-hour darkness cycle (12:12LD) at a temperature of 22° C. to 24° C., in humidity of 40% to 60%, and with food and water ad libitum. HCT116 was trypsinized, washed twice with serum-free DMEM, and dispersed at a density of 1×10^7 cells/mL PBS. […] of the dispersed cells was subcutaneously injected into the right back region of the mice. After the tumor size reached about 150 mm^3, the mice were randomly divided into six (6) groups depending on differences in the minimum weight and tumor size. The mice were intratumorally injected with physiological saline, DGO, GQD, Cur, DGO-Cur, and GQD-Cur dispersions at a total dose of 10 mg/kg. The tumor size of each of the groups was measured by a caliper, and the tumor volume was calculated by using the following equation: tumor volume=ab^2×0.5236, where ‘a’ is the maximum diameter of tumor, and ‘b’ is the minimum diameter of tumor. Relative tumor volumes were calculated as V/V0 (V0 was the tumor volume when the treatment was initiated).
# Experimental female nude mice bearing subcutaneous xenografts were divided into groups and intratumorally injected with a single dose of each of physiological saline, pure DGO and GQDs, free Cur, or DGO-Cur and GQD-Cur composites. […]
# HCT116 cells = experiment: In vitro cytotoxicity, MTT analysis; format: cell-based, Human; settings: HCT116, 100 μg/mL, 24 hours
# Protocol: Human colon cancer cells (HCT116) were maintained in a Dulbecco's modified Eagle medium (DMEM), and supplemented with 10% fetal bovine serum (FBS) and antibiotics (10,000 μg/mL streptomycin and 10,000 unit/mL penicillin) at 37° C. in a humidified atmosphere containing 5% CO2(v/v).
# In vitro cytotoxicity was measured by using standard colorimetric 3-(4,5-dimethylthiazol-2-yl)-2,5-diphenyl tetrazolium bromide (MTT) analysis. For the MTT analysis, HCT116 cells were seeded in a 96-well cell-culture plate at 1×10^4/well, and cultured for 12 hours at 37° C. under 5% CO2. Thereafter, the HCT116 cells were cultured for 24 hours by using various concentrations ([…], 12.5, 25, 50, and 100 μg/mL) of GO, DGO, GQD, Cur, GO-Cur, DGO-Cur, and GQD-Cur. Next, 20 μl stock MTT (5 mg/mL) was added to each of the cells, and the cells were cultured under 5% CO2 at 37° C. for 4 hours. After the culture for additional 4 hours, the resulting formazan crystals were dissolved in dimethyl sulfoxide (DMED, 100 μl), and absorbance intensity was measured by a microplate reader at 570 nm. All the experiments were conducted in quadruplicate, and the relative cell viability (%) was expressed as a percentage relative to untreated control cells.
structure (smiles),measurement,setting,value
"COc1cc(/C=C/C(=O)CC(=O)/C=C/c2ccc(O)c(OC)c2)ccc1O [Cur, Curcumin]",inhibition of tumor proliferation,HCT116 tumors,tumor proliferation was initially inhibited to some extent
same,cancer cells dead,HCT116 cells,about 70%
